This assay relates to NK Falkone 2015 corn seeds. The experiment in a line: Corn seed germination under cold stress (Example B1). The format is in vivo. The settings on record: Zea mays, cold stress 15° C.; for change in vivo at 2 µM: Rate 2 μM; for change in vivo at 10 µM: Rate 10 μM; for change in vivo at 50 µM: Rate 50 μM; for change in vivo at 250 µM: Rate 250 μM; for change in vivo at 0.4 µM: Rate 0.4 μM. On the procedure: The effect of compounds of formula (I) on the germination of NK Falkone 2015 corn seeds under cold stress was evaluated as follows. NK Falkone corn seeds were sorted by size using 2 sieves, one excluding very big seeds and the other with round holes of 8 to 9 mm diameter. The seeds retained by the latter sieve were used for the germination test. The corn seeds were placed in 24 well plates (each plate was considered as one experimental unit or replicate). Germination was initiated by the addition of 250 μl of distilled water containing 0.5% DMSO per well as a means for compound solubilization. 8 replicates (ie, 8 plates) were used for each treatment characterization. Plates were sealed using seal foil (Polyolefin Art. Nr. 900320) from HJ-BIOANALYTIK. All plates were placed horizontally on trolleys in a climatic chamber at 15° C. The experiment was laid out in a completely randomized design in climatic chamber with 75% Relative Humidity. Foils were pierced, one hole per well using a syringe after 72 hours for experiments performed at 15° C.
Germination was followed over time by taking photographs at different time points. Image analysis was performed automatically with a macro which was developed using the Image J software. A dynamic analysis of germination was carried out by fitting a logistic curve. Three parameters were calculated from the logistic curve: the T50; the slope and the plateau. All three parameters have a high agronomical relevance and are key requirements to ensure a good early crop-establishment. All the values are expressed as percentages compared to an untreated control. All the three parameters are calculated considering 8 replicates and the kinetic parameters are separately determined for each germination curve. Data in bold indicate germination enhancing statistically significant differences between treated seeds and untreated control (p<0.05). The T50 corresponds to the time needed for half of the seed population to germinate. Higher negative %-values indicate faster germination. The slope indicates how synchronous the germination of the seed population is. Positive values indicate steeper curve; the steeper the curve, the better and more uniform the germination is.

Setting [1] is: slope of logistic germination curve, read-out: Slope (% vs control).
Setting [2] is: time for half of seeds to germinate, control T50 = 110 hours, read-out: T50 (% vs control).

Like-named read-outs stand apart in the source and are kept apart here.

The record followed here is US11136292B2, “Plant growth regulator compounds” (SYNGENTA PARTICIPATIONS AG, priority 2016, dated 2021).

Consider `CCOC(=O)/C(=C/OC1C=C(C)C(=O)O1)C1CCc2ccccc21` (stereo not shown) [Compound I-1], for which, under setting [1], the change in vivo at 2 µM turned out to be 8.1%, the change in vivo at 10 µM amounted to 10%, the change in vivo at 50 µM came to 27.9% and the change in vivo at 250 µM was found to be 142%. Also, under setting [2], the change in vivo at 2 µM is -0.5%, the change in vivo at 10 µM stood at 1.6%, the change in vivo at 50 µM was -2.8% and the change in vivo at 250 µM was -7.2%.

For `CCOC(=O)/C(=C/OC1OC(=O)C(C)=C1C)C1CCc2ccccc21` (stereo not shown) [Compound I-2], under setting [1], the change in vivo at 2 µM is -11.8%, the change in vivo at 10 µM stood at 18.1%, the change in vivo at 50 µM was 47% and the change in vivo at 250 µM was 121%. Also, under setting [2], the change in vivo at 2 µM amounted to 2.3%, the change in vivo at 10 µM was -3%, the change in vivo at 50 µM was -6.2% and the change in vivo at 250 µM was -10.1%.

Take `CCOC(=O)/C(=C/OC1C=C(C)C(=O)N1c1cc(C(F)(F)F)cc(C(F)(F)F)c1)C1CCc2ccccc21` (stereo not shown) [Compound I-7]: under setting [1], the change in vivo at 2 µM is 63.9%, the change in vivo at 10 µM amounted to 69.8%, the change in vivo at 50 µM worked out at 78.8% and the change in vivo at 250 µM came out at 11.3%. Further, under setting [2], the change in vivo at 2 µM was -3.4%, the change in vivo at 10 µM was -3.5%, the change in vivo at 50 µM is -6.6% and the change in vivo at 250 µM is -1.8%.

As for `COC(=O)/C(=C/OC1C=C(C)C(=O)O1)C1CCc2ccccc21` (stereo not shown) [Compound I-10], under setting [1], the change in vivo at 2 µM is 8.2%, the change in vivo at 10 µM worked out at 10.7%, the change in vivo at 50 µM was found to be 30.3% and the change in vivo at 250 µM stood at 82.5%. In addition, under setting [2], the change in vivo at 2 µM was -0.9%, the change in vivo at 10 µM was -0.8%, the change in vivo at 50 µM is -3.3% and the change in vivo at 250 µM was -7.4%.

`COC(=O)/C(=C/OC1OC(=O)C(C)=C1C)C1CCc2ccccc21` (stereo not shown) [Compound I-11]: under setting [1], the change in vivo at 2 µM was 11.4%, the change in vivo at 10 µM worked out at 7.4%, the change in vivo at 50 µM was 20.1% and the change in vivo at 250 µM was 89.6%. Besides, under setting [2], the change in vivo at 2 µM was -1%, the change in vivo at 10 µM came to 0.2%, the change in vivo at 50 µM is -5.1% and the change in vivo at 250 µM is -6.9%.

For `CNC(=O)/C(=C/OC1C=C(C)C(=O)O1)C1CCc2ccccc21` (stereo not shown) [Compound I-37-1], under setting [1], the change in vivo at 2 µM was 10.8%, the change in vivo at 10 µM is -15.7%, the change in vivo at 50 µM is 5.2% and the change in vivo at 250 µM was 51.7%. Under setting [2], the change in vivo at 2 µM was -1.3%, the change in vivo at 10 µM is -2.5%, the change in vivo at 50 µM is -2.6% and the change in vivo at 250 µM is -4.6%.

In the case of `CNC(=O)/C(=C/OC1C=C(C)C(=O)N1c1cc(C(F)(F)F)cc(C(F)(F)F)c1)C1CCc2ccccc21` (stereo not shown) [Compound I-55-1], under setting [1], the change in vivo at 2 µM was -8.1%, the change in vivo at 10 µM was found to be 3.8%, the change in vivo at 50 µM came to 61.1% and the change in vivo at 250 µM amounted to 89.8%. Moreover, under setting [2], the change in vivo at 2 µM was determined as 1.7%, the change in vivo at 10 µM was -1.4%, the change in vivo at 50 µM is -6.8% and the change in vivo at 250 µM is -10.6%.

`CCOC(=O)/C(=C/OC1C=C(C)C(=O)O1)C1CCc2cc(OC)c(OC)cc21` (stereo not shown) [Compound I-64]: under setting [1], the change in vivo at 2 µM was found to be 1.1%, the change in vivo at 10 µM is -1.6%, the change in vivo at 50 µM is 27.9% and the change in vivo at 250 µM was 83.8%. Under setting [2], the change in vivo at 2 µM was -1.4%, the change in vivo at 10 µM is -3.2%, the change in vivo at 50 µM is -4.6% and the change in vivo at 250 µM was -10.7%.

As for `CCOC(=O)/C(=C/OC1OC(=O)C(C)=C1C)C1CCc2cc(OC)c(OC)cc21` (stereo not shown) [Compound I-65], under setting [1], the change in vivo at 2 µM worked out at 1%, the change in vivo at 10 µM was determined as 18.8%, the change in vivo at 50 µM was 23% and the change in vivo at 250 µM was 123%. Under setting [2], the change in vivo at 2 µM was -0.9%, the change in vivo at 10 µM is -3.1%, the change in vivo at 50 µM was -2.6% and the change in vivo at 250 µM is -12.6%.

Regarding `CCOC(=O)/C(=C/OC1C=C(C)C(=O)O1)C1CCc2cc3c(cc21)OCO3` (stereo not shown) [Compound I-66], under setting [1], the change in vivo at 2 µM stood at 22.6%, the change in vivo at 10 µM was determined as 2.9%, the change in vivo at 50 µM is 34.5% and the change in vivo at 250 µM turned out to be 31.6%. For the same molecule, under setting [2], the change in vivo at 2 µM was -5.2%, the change in vivo at 10 µM is -2.9%, the change in vivo at 50 µM was -5.1% and the change in vivo at 250 µM is -5.8%.

As to `CCOC(=O)/C(=C/OC1C=C(C)C(=O)O1)C1CCc2c(C)cccc21` (stereo not shown) [Compound I-68], under setting [1], the change in vivo at 2 µM came out at 23.4%, the change in vivo at 10 µM amounted to 3.8%, the change in vivo at 50 µM was 44.7% and the change in vivo at 250 µM amounted to 113%. Moreover, under setting [2], the change in vivo at 2 µM is -1.2%, the change in vivo at 10 µM is -0.6%, the change in vivo at 50 µM was -5.7% and the change in vivo at 250 µM is -6.8%.

With `CCOC(=O)/C(=C/OC1C=C(C)C(=O)O1)C1CCc2c1cccc2C(F)(F)F` (stereo not shown) [Compound I-70], under setting [1], the change in vivo at 2 µM is 9%, the change in vivo at 10 µM is 18.4%, the change in vivo at 50 µM was determined as 87.9% and the change in vivo at 250 µM was 115%. Under setting [2], the change in vivo at 2 µM was -2.5%, the change in vivo at 10 µM is -0.2%, the change in vivo at 50 µM was -6.8% and the change in vivo at 250 µM is -8.6%.

As to `CCOC(=O)/C(=C/OC1OC(=O)C(C)=C1C)C1CCc2ccc(C(F)(F)F)cc21` (stereo not shown) [Compound I-73], under setting [1], the change in vivo at 2 µM is -1.1%, the change in vivo at 10 µM came to 14.2%, the change in vivo at 50 µM was found to be 57.8% and the change in vivo at 250 µM turned out to be 54.1%. Under setting [2], the change in vivo at 2 µM was -3.5%, the change in vivo at 10 µM was -6.3%, the change in vivo at 50 µM is -7.8% and the change in vivo at 250 µM is -9.2%.

For the molecule `CCOC(=O)/C(=C/OC1OC(=O)C(C)=C1C)C1CCCc2ccccc21` (stereo not shown) [Compound I-75], under setting [1], the change in vivo at 2 µM was found to be 4.9%, the change in vivo at 10 µM worked out at 5.6%, the change in vivo at 50 µM worked out at 58.4% and the change in vivo at 250 µM was determined as 44.2%. Also, under setting [2], the change in vivo at 2 µM was -3.5%, the change in vivo at 10 µM is -2.6%, the change in vivo at 50 µM is -6.5% and the change in vivo at 250 µM was -5%.

Consider `CCOC(=O)/C(=C/OC1C=C(C)C(=O)O1)C1Cc2ccccc21` (stereo not shown) [Compound I-76], for which, under setting [1], the change in vivo at 0.4 µM is -5.6%, the change in vivo at 2 µM was -5%, the change in vivo at 10 µM was 50.6% and the change in vivo at 50 µM amounted to 122%. In addition, under setting [2], the change in vivo at 0.4 µM is -0.5%, the change in vivo at 2 µM is -0.7%, the change in vivo at 10 µM is -6.4% and the change in vivo at 50 µM is -8.8%.

For `CCOC(=O)/C(=C/OC1OC(=O)C(C)=C1C)C1CCc2ccsc21` (stereo not shown) [Compound I-83], under setting [1], the change in vivo at 2 µM came to 6.5%, the change in vivo at 10 µM is 34.1%, the change in vivo at 50 µM was 32.6% and the change in vivo at 250 µM is 157%. Under setting [2], the change in vivo at 2 µM was -3%, the change in vivo at 10 µM was -2.2%, the change in vivo at 50 µM was -4.8% and the change in vivo at 250 µM is -8.6%.

Regarding `CCOC(=O)/C(=C/OC1C=C(C)C(=O)O1)C1CCC[C@@]2(C)CCC12` (stereo partly shown) [Compound I-86], under setting [1], the change in vivo at 2 µM amounted to 17.1%, the change in vivo at 10 µM is 20.2%, the change in vivo at 50 µM was determined as 138% and the change in vivo at 250 µM was 150%. Besides, under setting [2], the change in vivo at 2 µM is 0.2%, the change in vivo at 10 µM was -2.7%, the change in vivo at 50 µM was -9.7% and the change in vivo at 250 µM was -11.2%.
